We go through 1 molecule from patent US8618101B2, “N-((1R,2S,5R)-5-(tert-butylamino)-2-((S)-3-(7-tert-butylpyrazolo[1,5-a][1,3,5]triazin-4-ylamino)-2-oxopyrrolidin-1-yl)cyclohexyl)acetamide, a dual modulator of chemokine receptor activity, crystalline forms and processes” (Bristol-Myers Squibb Company, priority 2009, dated 2013).

Data set [1] addresses T1, CCR-5 (Homo sapiens, UniProt P51681).
T1 construct: human peripheral T cells was used as a source of CCR-5; endogenous in cells; host or cells: human peripheral T cells from donors pre-screened for high CCR-5 expression
Nature of the data set: CCR-5 whole blood CD11b upregulation. Format: cell-based. The following applies: MIP-1β 50 nM. The method, then: Similar procedure to the CCR-2 whole blood CD11b upregulation procedure set forth above was adopted except that MIP-1β (50 nM) was used as the ligand.

A further data set deals with CCR-2 (Homo sapiens, UniProt P41597). The data set is described as follows: CCR-2 whole blood integrin (CD11b) upregulation. In kind it is cell-based. The method, then: A CCR-2-dependent CD11b upregulation assay was established with human whole blood. Whole blood (100 μl) was pre-incubated with a concentration range of Example 1 at 37° C. for 10 minutes. […] The reactions were incubated for 30 minutes at 37° C. […] The samples were then incubated for 30 minutes on ice in the dark. […] Data acquisition and analysis were performed using CellQuestPro software. A sequential gating strategy was used to analyze the CD14^high CD11b^+ monocyte population.
Chain of CCR-2 (P41597 whole entry): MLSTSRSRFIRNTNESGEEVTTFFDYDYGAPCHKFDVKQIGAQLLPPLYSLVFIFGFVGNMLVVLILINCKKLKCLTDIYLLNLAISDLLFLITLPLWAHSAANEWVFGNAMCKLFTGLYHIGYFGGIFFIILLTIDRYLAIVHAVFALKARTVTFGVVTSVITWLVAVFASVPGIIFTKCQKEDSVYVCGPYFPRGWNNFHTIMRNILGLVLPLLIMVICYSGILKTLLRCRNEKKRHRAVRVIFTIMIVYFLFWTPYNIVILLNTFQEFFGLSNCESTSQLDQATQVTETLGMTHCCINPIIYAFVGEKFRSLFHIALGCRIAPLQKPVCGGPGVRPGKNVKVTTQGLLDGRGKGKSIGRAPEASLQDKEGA

The target in the next data set is T2, hERG (Homo sapiens, UniProt Q12809).
T2 construct: expressed in transfected cells; host or cells: HEK293
T2 sequence (Q12809 whole entry): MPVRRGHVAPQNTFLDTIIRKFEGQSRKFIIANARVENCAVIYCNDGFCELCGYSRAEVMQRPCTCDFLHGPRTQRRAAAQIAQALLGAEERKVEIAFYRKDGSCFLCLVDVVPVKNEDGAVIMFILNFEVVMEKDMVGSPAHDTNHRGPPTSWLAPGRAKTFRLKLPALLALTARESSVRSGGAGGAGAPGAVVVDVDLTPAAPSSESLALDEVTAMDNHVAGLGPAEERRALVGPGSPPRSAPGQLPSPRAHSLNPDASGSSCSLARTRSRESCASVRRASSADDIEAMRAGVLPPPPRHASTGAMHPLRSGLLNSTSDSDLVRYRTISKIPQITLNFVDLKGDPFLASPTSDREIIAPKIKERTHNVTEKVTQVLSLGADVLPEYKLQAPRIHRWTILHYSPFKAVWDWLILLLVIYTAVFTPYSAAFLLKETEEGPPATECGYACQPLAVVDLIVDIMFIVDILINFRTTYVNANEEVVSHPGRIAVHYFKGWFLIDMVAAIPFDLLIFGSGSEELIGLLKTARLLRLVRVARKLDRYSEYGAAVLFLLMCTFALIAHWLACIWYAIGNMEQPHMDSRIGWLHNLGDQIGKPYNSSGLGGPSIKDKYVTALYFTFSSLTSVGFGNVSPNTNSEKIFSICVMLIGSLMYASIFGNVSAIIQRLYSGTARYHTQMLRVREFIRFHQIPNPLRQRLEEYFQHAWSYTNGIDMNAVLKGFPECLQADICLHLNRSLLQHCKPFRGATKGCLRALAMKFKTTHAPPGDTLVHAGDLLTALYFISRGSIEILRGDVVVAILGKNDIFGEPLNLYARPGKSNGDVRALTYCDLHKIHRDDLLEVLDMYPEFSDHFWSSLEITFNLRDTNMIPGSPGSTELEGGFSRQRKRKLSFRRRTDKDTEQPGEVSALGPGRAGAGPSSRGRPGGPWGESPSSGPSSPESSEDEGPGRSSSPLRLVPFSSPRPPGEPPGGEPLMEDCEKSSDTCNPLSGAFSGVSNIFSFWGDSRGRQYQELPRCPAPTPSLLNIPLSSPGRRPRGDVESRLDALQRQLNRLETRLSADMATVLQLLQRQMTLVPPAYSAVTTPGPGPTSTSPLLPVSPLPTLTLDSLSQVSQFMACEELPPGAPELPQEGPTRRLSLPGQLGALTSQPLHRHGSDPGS
Nature of the data set: hERG patch clamp. In kind it is cell-based. The following applies: read-out: hERG patch clamp (% Inhib.). The method, then: Whole-cell patch-clamp was used to directly measure hERG currents in HEK-293 cells stably expressing the cloned hERG potassium channel α subunit. […] Repetitive test pulses (0.05 Hz) were applied from a holding potential of −80 mV to +20 mV for 2 seconds and tail currents were elicited following the test pulses by stepping the voltage to −65 mV. The effects from the compound were calculated by measuring inhibition of peak tail current
On the technique in general: Block of hERG is tested as a sign of cardiac risk.

For data set [2], the target named is T1, CCR-5. The data set is described as follows: CCR-5 chemotaxis, MIP-1β-induced, peripheral T cells. In kind it is cell-based. An excerpt:
(§1) Therefore, blood donors were pre-screened for high T-cell expression of CCR-5. hPBMCs were first isolated from human whole blood by standard protocol with Ficoll-Hypaque. Flow cytometric analysis was then used to measure CCR-5 expression on T cells following staining with anti-CCR-5 antibody plus anti-CD4 antibody or anti-CD8 antibody. Those blood donors in which >5% peripheral T cells (CD4^+ and CD8^+) express CCR-5 were requested to provide blood again for isolation of PBMCs and, subsequently, of T cells using a standard E-rosetting technique which relies on the unique ability of T cells to bind to sheep red blood cells (RBCs).
A similar procedure to that set forth above was adopted except that isolated peripheral T cells was used as CCR-5-expressing cells and MIP-1β (50 nM, PeproTech Inc.) was the ligand.

In data set [3] the target is T3, human CCR-2 (Homo sapiens, UniProt P41597).
T3 sequence (P41597 1-360 isoform P41597-2): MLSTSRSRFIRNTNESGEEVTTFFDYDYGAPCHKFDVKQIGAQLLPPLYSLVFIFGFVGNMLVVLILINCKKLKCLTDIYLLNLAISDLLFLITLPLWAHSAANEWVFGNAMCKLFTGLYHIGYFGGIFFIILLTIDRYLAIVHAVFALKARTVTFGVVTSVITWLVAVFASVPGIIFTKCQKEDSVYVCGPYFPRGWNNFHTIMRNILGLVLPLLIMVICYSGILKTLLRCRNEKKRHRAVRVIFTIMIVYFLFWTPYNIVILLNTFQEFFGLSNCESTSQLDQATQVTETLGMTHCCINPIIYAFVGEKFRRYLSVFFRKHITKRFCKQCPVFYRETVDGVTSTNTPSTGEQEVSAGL
The data set is described as follows: 125I-mouse MCP-1 binding to human CCR-2-expressing cells (hPBMCs). The following applies: read-out: in vitro IC50 for inhibition of 125I-mouse MCP-1 binding to human CCR-2-expressing cells (hPBMCs). The arrangement: hPBMCs were isolated from human leukopak; host or cells: human peripheral blood mononuclear cells.

In data set [4] the target is T1, CCR-5. The data set is described as follows: T cell CCR-5 binding assay, 125I-MIP-1β tracer. The conditions noted are these: human peripheral T cells.
Description: The procedure used for T cell CCR-5 binding assay was similar to those for hPBMC CCR-2 binding assay except that human peripheral T cells was used as a source of CCR-5 (see below) and ^125I-MIP-1β as a tracer (Amersham).
as §1

Data set [5] concerns the target T1, CCR-5. The data set is described as follows: CCR-5 calcium mobilization, HT1080/CCR-5 cells. In kind it is cell-based. The following applies: MIP-1β 50 nM, read-out: CCR-5 ^2+ Flux IC50. For orientation: Calcium flux is commonly read through the fluorescence of an indicator in the cells.
The nature of data set [6]: Single-dose pharmacokinetics in rats. The conditions noted are these: male, Sprague-Dawley, rat.
Description: Male Sprague-Dawley rats (250-300 g) were used for the pharmacokinetic studies. Rats were fasted overnight prior to PO dosing and fed 4 h post dose. Blood samples (˜0.3 mL) were collected from the jugular vein into K2EDTA-containing tubes and then centrifuged at 4° C. (1500-2000×g) to obtain plasma. […] Serial blood samples were obtained at 0.17 (for IV only), 0.25, 0.5, 0.75, 1, 2, 4, 6, 8, and 24 h post dose. Plasma samples, obtained by centrifugation at 4° C. (1500-2000×g), were stored at −20° C. until analysis by LC/MS/MS.
The pharmacokinetic parameters were obtained by non-compartmental analysis of plasma concentration vs. time data (Kinetica software, Version 4.2, InnaPhase Corporation, Philadelphia, Pa.). The peak concentration (Cmax) and time for Cmax were recorded directly from experimental observations. The area under the curve from time zero to the last sampling time (AUC(0-T)) was calculated using a combination of linear and log trapezoidal summations. The total plasma clearance (CLTp), steady-state volume of distribution (Vss), apparent elimination half-life (T½) and mean residence time (MRT) were estimated after IV administration. Estimations of T½ was made using a minimum of 3 time points with quantifiable concentrations. The absolute oral bioavailability (F) was estimated as the ratio of dose-normalized AUC values following oral and IV doses.
Data set [7] concerns the target T3, human CCR-2. Nature of the data set: CCR-2 chemotaxis, MCP-1-induced, THP-1 cells. In kind it is cell-based. The method, then: The human CCR-2 chemotaxis assay was conducted with the human monocytic cell line, THP-1. THP-1 cells were first labeled with the fluorescent dye Calcein-AM in phenol red-free, BSA-free RPMI-1640 (pH 7.4) at 37° C. for 30 minutes with gentle mixing every 15 minutes. The labeled cells were then washed and re-suspended at 1×10^5/ml in chemotaxis buffer (phenol red-free RPMI-1640, 0.1% BSA, pH 7.4). The test compound was diluted in chemotaxis buffer such that the final assay concentration ranged from 0.01 nM to 1 μM. The ligand MCP-1 (PeproTech Inc.) was diluted to 20 nM in chemotaxis buffer. To perform the assay, an equal volume of test compound dilutions was mixed with an equal volume of labeled THP-1 cells (Mixture 1), and an equal volume of test compound dilutions was mixed with an equal volume of diluted MCP-1 ligand (Mixture 2). Both mixtures were incubated independently at 37° C. for 10 minutes followed by gentle mixing. MCP-1-induced chemotaxis was then measured in a chemotaxis plate (Becton Dickinson) by placing 50 μl of Mixture 1 in the top chamber and 225 μl of Mixture 2 in the bottom chamber. The plate was covered with a lid and incubated at 37° C. for 30 minutes. 30 minutes later, the plate was read on a CYTOFLUOR®. All conditions were tested in duplicate. […]

T1 sequence (P51681 whole entry): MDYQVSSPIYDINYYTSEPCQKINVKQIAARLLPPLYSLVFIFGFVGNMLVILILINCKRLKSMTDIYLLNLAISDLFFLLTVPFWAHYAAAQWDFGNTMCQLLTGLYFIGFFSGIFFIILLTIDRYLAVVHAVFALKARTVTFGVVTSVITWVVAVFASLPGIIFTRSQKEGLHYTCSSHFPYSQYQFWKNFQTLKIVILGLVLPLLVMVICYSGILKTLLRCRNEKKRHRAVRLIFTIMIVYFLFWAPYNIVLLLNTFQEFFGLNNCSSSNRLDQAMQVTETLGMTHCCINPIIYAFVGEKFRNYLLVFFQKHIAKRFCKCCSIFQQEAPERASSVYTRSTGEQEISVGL

With `CC(=O)N[C@@H]1C[C@H](NC(C)(C)C)CC[C@@H]1N1CC[C@H](Nc2ncnc3cc(C(C)(C)C)nn23)C1=O` [Example 1, N-((1R,2 S,5R)-5-(tert-Butylamino)-2-((S)-3-(7-tert-butylpyrazolo[1,5-a][1,3,5]triazin-4-ylamino)-2-oxopyrrolidin-1-yl)cyclohexyl)acetamide], the half-inhibitory concentration (IC50) (commonly the concentration at which inhibition is half-maximal) stood at 5.7 nM against CCR-5 [1]; 4.8 nM against CCR-2 (human whole blood, MCP-1 10 nM); 1.1 ± 0.6 nM on CCR-5 [2]; 5.8 ± 2.3 nM on human CCR-2 [3]; 3.6 ± 1.8 nM on CCR-5 [4]; 2 ± 1.4 nM at CCR-5 [5]. This molecule came in with an IC50 against human CCR-2 [7] of 0.8 ± 0.8 nM. Further, the “activity against CCR-2 versus CCR-5 (Table 5)” value at CCR-2 (comparison of CCR-2 and CCR-5 CD11b IC50) was “equipotent against CCR-2 and CCR-5”. The inhibition at 10000 nM at hERG (pH 7.4, 10,000 nM) was determined as 1.2%. The inhibition at 30000 nM on hERG (pH 7.4, 30,000 nM) was 9.2%. In addition, in data set [6] (in vivo, 2 mg/kg), the clearance (as a rule, the volume of plasma or blood freed of the substance per unit of time) came to 49.7 mL/min/kg. The bioavailability – broadly, dose-corrected exposure relative to a reference, in per cent – in [6] (in vivo, 10 mg/kg) turned out to be 94%. The exposure (AUC) – broadly, the area under the concentration-time curve, a measure of exposure – in [6] (plasma, oral, 10 mg/kg) came to 6.5 µM·h.
